The source of these data is patent publication US11590116B2 (THERAVANCE BIOPHARMA R&D IP, LLC, priority 2019, dated 2023).

The target of test [1] is T1, recombinant human ALK5 (TGF-βR1) protein (Homo sapiens, UniProt P36897).
T1 construct: purchased Life Technologies PR9075A
T1 sequence (P36897 34-503): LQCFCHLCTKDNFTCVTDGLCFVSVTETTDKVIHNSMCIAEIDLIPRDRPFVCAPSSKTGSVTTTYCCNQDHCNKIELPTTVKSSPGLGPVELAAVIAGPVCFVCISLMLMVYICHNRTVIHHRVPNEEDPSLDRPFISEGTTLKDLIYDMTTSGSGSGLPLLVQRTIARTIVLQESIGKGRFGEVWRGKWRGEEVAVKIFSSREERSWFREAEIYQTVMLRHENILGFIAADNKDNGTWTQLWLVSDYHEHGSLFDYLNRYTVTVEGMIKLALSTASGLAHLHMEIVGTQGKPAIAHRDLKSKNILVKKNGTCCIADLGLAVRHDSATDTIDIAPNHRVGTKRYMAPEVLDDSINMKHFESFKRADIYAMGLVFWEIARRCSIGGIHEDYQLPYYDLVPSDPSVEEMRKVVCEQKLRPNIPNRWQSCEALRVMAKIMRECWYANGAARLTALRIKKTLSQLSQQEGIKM
Kind of test: Biochemical ALK5 (TGF-βR1) assay to measure pKi (LANCE Ultra ULight kinase assay). The note with it: apparent pKi from pIC50 by Cheng-Prusoff, read-out: ALK5 pKi (converted). Summed up: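 Compounds (10 μM to 25 pM) were preincubated 60 min at room temperature with enzyme, then reactions were started with ATP (125 μM stock, 5× final) and run 60 min at 37 °C. EDTA-containing Eu-anti-phospho-Topo IIα (Thr1342) antibody stopped the reaction; TR-FRET read at 665 nm. pIC50 from 4-parameter fit, converted to pKi via Cheng-Prusoff.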
(In TR-FRET formats the signal depends on donor and acceptor labels being close together.)

The test system of test [2] is TGF-β-stimulated SMAD3 phosphorylation in BEAS-2B cells. Kind of test: Cellular ALK5 potency assay, inhibition of TGF-β stimulated pSMAD3 formation in BEAS-2B cells. The format is cell-based. The settings on record: Homo sapiens; inhibition of TGF-β stimulated pSMAD3 formation, BEAS-2B cells; read-out: BEAS2B pIC50 (converted). Summed up:
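Cells seeded overnight; rinse with supplemented HBSS; compound 1 h at 37 °C; TGF-β 10 ng/mL final, 30 min; lyse; AlphaLISA acceptor and detector beads 2 h apart, read next day. Potency expressed as pIC50.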

Molecules are shown by their SMILES.

Regarding `Cc1cccc(-c2[nH]cnc2-c2ccc3ncc(NCCN(C)C4CCNC4)cc3c2)n1` (racemic) [Compound 537, N′-methyl-N-[6-[5-(6-methyl-2-pyridyl)-1H-imidazol-4-yl]-3-quinolyl]-N′-[rac-(3R)-pyrrolidin-3-yl]ethane-1,2-diamine], the Ki in test [1] was 0.0398 to 0.316 nM. For the same compound, the IC50 in test [2] was 200 to 1260 nM.

Turning to `CNCCn1ccc(-c2cnc3ccc(-c4c[nH]nc4-c4cccc(C(C)C)n4)nc3c2)n1` [Compound 276, 2-[3-[6-[3-(6-isopropyl-2-pyridyl)-1H-pyrazol-4-yl]-1,5-naphthyridin-3-yl]pyrazol-1-yl]-N-methyl-ethanamine], in test [1], the Ki is less than 0.0316 nM. Moreover, in test [2], the IC50 was 25.1 to 158 nM.

Take `Cc1cccc(-c2n[nH]cc2-c2ccc3ncc(NCC4CN5CCN4CC5)cc3n2)n1` (centres unmarked) [Compound 566, N-(1,4-diazabicyclo[2.2.2]octan-2-ylmethyl)-6-[3-(6-methyl-2-pyridyl)-1H-pyrazol-4-yl]-1,5-naphthyridin-3-amine]: the Ki in test [1] is 0.0398 to 0.316 nM. In addition, the IC50 in test [2] is 25.1 to 158 nM.

On to `Cc1cccc(-c2[nH]cnc2-c2ccc3nccc(C(=O)OC[C@H]4CC[C@H](N)CC4)c3c2)n1` [Compound 1081, (4-aminocyclohexyl)methyl 6-[5-(6-methyl-2-pyridyl)-1H-imidazol-4-yl]quinoline-4-carboxylate], for which, in test [1], the Ki was 0.398 to 3.16 nM. The IC50 in test [2] is 200 to 1260 nM.

Turning to `Cc1cccc(-c2n[nH]cc2-c2ccc3ncc(N4CCC(N(C)CC(C)C)CC4)cc3n2)n1` [Compound 403, N-isobutyl-N-methyl-1-[6-[3-(6-methyl-2-pyridyl)-1H-pyrazol-4-yl]-1,5-naphthyridin-3-yl]piperidin-4-amine], the Ki in test [1] was 0.0398 to 0.316 nM. Also, the IC50 in test [2] was 25.1 to 158 nM.

With `CC(C)N1CCN(CCNc2cnc3ccc(-c4c[nH]nc4-c4cccc(C(F)F)n4)nc3c2)CC1` [Compound 226, 6-[3-[6-(difluoromethyl)-2-pyridyl]-1H-pyrazol-4-yl]-N-[2-(4-isopropylpiperazin-1-yl)ethyl]-1,5-naphthyridin-3-amine], the Ki in test [1] is 0.0398 to 0.316 nM. Besides, the IC50 in test [2] is 25.1 to 158 nM.

As for `Cc1cccc(-c2n[nH]cc2-c2ccc3ncc(N(C)CC(=O)N4CCOCC4)cc3n2)n1` [Compound 181, 2-[methyl-[6-[3-(6-methyl-2-pyridyl)-1H-pyrazol-4-yl]-1,5-naphthyridin-3-yl]amino]-1-morpholino-ethanone], the Ki in test [1] is 0.398 to 3.16 nM. The IC50 in test [2] was 25.1 to 158 nM.

In the case of `Cc1cccc(-c2[nH]cnc2-c2ccc3ncc(C4=CC[C@@H](NC(=O)[C@@H]5CCCN5)CC4)cc3c2)n1` [Compound 775, (2S)-N-[(1S)-4-[6-[5-(6-methyl-2-pyridyl)-1H-imidazol-4-yl]-3-quinolyl]cyclohex-3-en-1-yl]pyrrolidine-2-carboxamide], the Ki in test [1] is 0.0398 to 0.316 nM. The IC50 in test [2] was 25.1 to 158 nM.

Turning to `Cc1cccc(-c2[nH]cnc2-c2ccc3nccc(C(=O)O[C@H]4C[C@@H](N)C4)c3c2)n1` [Compound 1042, (3-aminocyclobutyl) 6-[5-(6-methyl-2-pyridyl)-1H-imidazol-4-yl]quinoline-4-carboxylate], the Ki in test [1] was 0.398 to 3.16 nM. For the same compound, the IC50 in test [2] is 25.1 to 158 nM.

For the compound `Cc1cccc(-c2n[nH]cc2-c2ccc3ncc(N4CC(C)(N(C)C)C4)cc3n2)n1` [Compound 586, N,N,3-trimethyl-1-[6-[3-(6-methyl-2-pyridyl)-1H-pyrazol-4-yl]-1,5-naphthyridin-3-yl]azetidin-3-amine], the Ki in test [1] is less than 0.0316 nM. Moreover, in test [2], the IC50 was 25.1 to 158 nM.

In the case of `Cc1cccc(-c2[nH]cnc2-c2ccc3ncc(-c4nc(C(=O)OCCN5C[C@@H](C)N[C@@H](C)C5)cs4)cc3c2)n1` [Compound 1226, 2-[(3R,5S)-3,5-dimethylpiperazin-1-yl]ethyl 2-[6-[5-(6-methyl-2-pyridyl)-1H-imidazol-4-yl]-3-quinolyl]thiazole-4-carboxylate], in test [1], the Ki is 0.0398 to 0.316 nM. Besides, the IC50 in test [2] was 25.1 to 158 nM.

With `Cc1cccc(-c2[nH]cnc2-c2ccc3ncc(N4CCC(C(=O)OCC5CNC5)CC4)cc3c2)n1` [Compound 424, azetidin-3-ylmethyl 1-[6-[5-(6-methyl-2-pyridyl)-1H-imidazol-4-yl]-3-quinolyl]piperidine-4-carboxylate], the Ki in test [1] was 0.0398 to 0.316 nM. The IC50 in test [2] was 200 to 1260 nM.

With `Cc1cccc(-c2[nH]cnc2-c2ccc3ncc(-c4cncc(CN5C[C@@H](C)N[C@@H](C)C5)c4)cc3c2)n1` [Compound 1106, 3-[5-[[(3S,5R)-3,5-dimethylpiperazin-1-yl]methyl]-3-pyridyl]-6-[5-(6-methyl-2-pyridyl)-1H-imidazol-4-yl]quinoline], the Ki in test [1] is 0.0398 to 0.316 nM. Further, the IC50 in test [2] was 25.1 to 158 nM.

For `Cc1cccc(-c2[nH]c(CNc3ccccc3F)nc2-c2ccc3ncc(N4CCC(N(C)C)C4)cc3c2)n1` (racemic) [Compound 652, rac-(3S)-1-[6-[2-[(2-fluoroanilino)methyl]-5-(6-methyl-2-pyridyl)-1H-imidazol-4-yl]-3-quinolyl]-N,N-dimethyl-pyrrolidin-3-amine], in test [1], the Ki was 0.0398 to 0.316 nM. For the same compound, the IC50 in test [2] was 200 to 1260 nM.

As to `Cc1cccc(-c2nc3ccccn3c2-c2ccc3ncc(N4CCC(N(C)C)CC4)cc3n2)n1` [Compound 683, N,N-dimethyl-1-[6-[2-(6-methyl-2-pyridyl)imidazo[1,2-a]pyridin-3-yl]-1,5-naphthyridin-3-yl]piperidin-4-amine], the Ki in test [1] was 0.0398 to 0.316 nM. In addition, in test [2], the IC50 is 25.1 to 158 nM.

Turning to `Cc1cccc(-c2n[nH]cc2-c2ccc3nccc(NC(=O)CCN4CCN(C(C)C)CC4)c3n2)n1` [Compound 843, 3-(4-isopropylpiperazin-1-yl)-N-[6-[3-(6-methyl-2-pyridyl)-1H-pyrazol-4-yl]-1,5-naphthyridin-4-yl]propanamide], in test [1], the Ki is 0.398 to 3.16 nM. The IC50 in test [2] was 25.1 to 158 nM.

With `Cc1nc(-c2n[nH]cc2-c2ccc3ncc(-c4c(C)nn5c4NCCC5)cc3n2)ccc1F` [Compound 504, 2-[3-(5-fluoro-6-methyl-2-pyridyl)-1H-pyrazol-4-yl]-7-(2-methyl-4,5,6,7-tetrahydropyrazolo[1,5-a]pyrimidin-3-yl)-1,5-naphthyridine], in test [1], the Ki is 0.398 to 3.16 nM. For the same compound, the IC50 in test [2] was 25.1 to 158 nM.

Turning to `Cc1cccc(-c2n[nH]cc2-c2ccc3ncc(-c4nc(CO)co4)cc3n2)n1` [Compound 32, [2-[6-[3-(6-methyl-2-pyridyl)-1H-pyrazol-4-yl]-1,5-naphthyridin-3-yl]oxazol-4-yl]methanol], the Ki in test [1] is less than 0.0316 nM. Besides, the IC50 in test [2] was 25.1 to 158 nM.

As to `Cc1cccc(-c2[nH]cnc2-c2ccc3ncc(C4=CCC5(CC4)CNC5)cc3c2)n1` [Compound 294, 3-(2-azaspiro[3.5]non-6-en-7-yl)-6-[5-(6-methyl-2-pyridyl)-1H-imidazol-4-yl]quinoline], in test [1], the Ki was 0.0398 to 0.316 nM. In addition, the IC50 in test [2] is 25.1 to 158 nM.

`Cc1cccc(-c2[nH]cnc2-c2ccc3ncc(-c4csc(C(=O)O)c4)cc3c2)n1` [Compound 798, 4-(6-(5-(6-methylpyridin-2-yl)-1H-imidazol-4-yl)quinolin-3-yl)thiophene-2-carboxylic acid]: in test [1], the Ki was 0.0398 to 0.316 nM. Moreover, the IC50 in test [2] is 1580 to 10000 nM.

As to `Cc1cccc(-c2[nH]cnc2-c2ccc3ncc(C(=O)O[C@H]4C[C@H](N)C4)cc3c2)n1` [Compound 782, (3-aminocyclobutyl) 6-[5-(6-methyl-2-pyridyl)-1H-imidazol-4-yl]quinoline-3-carboxylate], the Ki in test [1] is 0.0398 to 0.316 nM. In addition, in test [2], the IC50 was 25.1 to 158 nM.

In the case of `Cc1cccc(-c2[nH]cnc2-c2ccc3ncc(N4CCNC(CC(=O)O)C4)cc3c2)n1` (centres unmarked) [Compound 500, 2-(4-(6-(5-(6-methylpyridin-2-yl)-1H-imidazol-4-yl)quinolin-3-yl)piperazin-2-yl)acetic acid], the Ki in test [1] was 0.0398 to 0.316 nM. Besides, the IC50 in test [2] was 1580 to 10000 nM.

With `Cc1nc(-c2[nH]cnc2-c2ccc3ncc(-c4cn[nH]c4)cc3c2)ccc1F` [Compound 423, 6-[5-(5-fluoro-6-methyl-2-pyridyl)-1H-imidazol-4-yl]-3-(1H-pyrazol-4-yl)quinoline], in test [1], the Ki was less than 0.0316 nM. Besides, the IC50 in test [2] was less than 20 nM.

In the case of `CNC1CCN(c2cnc3ccc(-c4c(-c5cccc(C)n5)nc5ccccn45)nc3c2)CC1` [Compound 501, N-methyl-1-[6-[2-(6-methyl-2-pyridyl)imidazo[1,2-a]pyridin-3-yl]-1,5-naphthyridin-3-yl]piperidin-4-amine], the Ki in test [1] is 0.0398 to 0.316 nM. Moreover, the IC50 in test [2] is 25.1 to 158 nM.

On to `CCOC(=O)CN1CCN(Cc2ccnc3ccc(-c4c[nH]nc4-c4cccc(C)n4)nc23)CC1` [Compound 821, ethyl 2-[4-[[6-[3-(6-methyl-2-pyridyl)-1H-pyrazol-4-yl]-1,5-naphthyridin-4-yl]methyl]piperazin-1-yl]acetate], for which, in test [1], the Ki was 0.398 to 3.16 nM. The IC50 in test [2] is 25.1 to 158 nM.
